Results: ChEMBL document CHEMBL4742387, “Condensed tricyclic compounds as protein kinase inhibitors” (2018)
The source made the active and inactive calls. The calls are words filed in the database; no cut-off is given here.

What was measured:
[1] = system: SW-620; assay: Induction of apoptosis in human SW-620 cells at 0.5 to 5 uM incubated for 24 hrs by propidium iodide staining based assay; type: functional, cell-based; conditions: dose 0.5-5 µM
[2] = system: SW-620; assay: Synergistic antiproliferative activity against human SW-620 cells assessed as reduction in cell proliferation by measuring combination index in presence of Crizotinib by MTT assay; type: functional
[3] = system: MOLM-13; assay: Antiproliferative activity against human MOLM-13 cells assessed as reduction in cell proliferation by CellTiter-Glo luminescent cell viability assay; type: functional; conditions: Homo sapiens, MOLM-13
[4] = molecular target: T1, Serine/threonine-protein kinase haspin (Homo sapiens, UniProt Q8TF76); assay: Inhibition of haspin in human SW620 cells assessed as reduction in IFNgamma-induced H3T3 phosphorylation pre-incubated for 1 hr before IFNgamma stimulation for 3 hrs by Western blot analysis; type: cell-based, SW-620
T1 sequence (Q8TF76 whole entry): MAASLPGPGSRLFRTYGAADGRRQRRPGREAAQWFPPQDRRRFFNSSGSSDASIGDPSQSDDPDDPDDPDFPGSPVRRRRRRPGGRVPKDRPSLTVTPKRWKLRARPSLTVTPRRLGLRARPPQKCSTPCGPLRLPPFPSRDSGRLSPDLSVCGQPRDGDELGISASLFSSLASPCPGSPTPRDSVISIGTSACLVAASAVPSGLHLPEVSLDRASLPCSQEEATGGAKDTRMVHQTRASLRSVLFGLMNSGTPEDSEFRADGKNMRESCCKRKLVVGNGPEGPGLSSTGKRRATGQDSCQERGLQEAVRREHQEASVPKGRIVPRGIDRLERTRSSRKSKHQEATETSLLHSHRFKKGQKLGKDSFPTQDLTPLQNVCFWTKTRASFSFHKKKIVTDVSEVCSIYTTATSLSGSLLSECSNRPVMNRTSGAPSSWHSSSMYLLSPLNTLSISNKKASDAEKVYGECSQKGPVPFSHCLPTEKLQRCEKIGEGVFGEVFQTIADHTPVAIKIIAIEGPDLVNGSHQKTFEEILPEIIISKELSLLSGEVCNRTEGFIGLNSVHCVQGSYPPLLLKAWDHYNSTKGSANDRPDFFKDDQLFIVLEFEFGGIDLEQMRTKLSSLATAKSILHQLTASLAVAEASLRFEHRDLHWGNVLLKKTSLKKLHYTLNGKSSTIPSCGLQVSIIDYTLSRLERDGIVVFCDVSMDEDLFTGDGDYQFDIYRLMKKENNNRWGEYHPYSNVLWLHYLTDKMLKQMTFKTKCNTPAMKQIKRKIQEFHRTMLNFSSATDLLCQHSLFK

[5] = molecular target: Cyclin-dependent kinase 8 (Homo sapiens, UniProt P49336); assay: Inhibition of CDK8 in human SW-620 cells assessed as reduction in STAT1 S727 phosphorylation pre-incubated for 1 hr before IFNgamma stimulation for 3 hrs by Western blot analysis; type: cell-based
[6] = system: HCT-116; assay: Synergistic antiproliferative activity against human HCT-116 cells assessed as reduction in cell proliferation by measuring combination index in presence of Ali-sertib by MTT assay; type: functional
[7] = molecular target: T2, Serine/threonine-protein kinase haspin (Homo sapiens) (UniProt Q8TF76); assay: Inhibition of haspin in synchronized human SW620 cells assessed as reduction in IFNgamma-induced H3T3 phosphorylation pre-incubated for 1 hr before IFNgamma stimulation for 3 hrs by Western blot analysis; type: cell-based; conditions: SW-620, time 4.0 hrs
T2 sequence (whole entry): T1 sequence (Q8TF76 whole entry)

[8] = system: DU-145; assay: Synergistic antiproliferative activity against human DU-145 cells assessed as reduction in cell proliferation by measuring combination index in presence of Taxol by MTT assay; type: functional
[9] = system: SW-620; assay: Antiproliferative activity against human SW-620 cells assessed as reduction in cell proliferation by CellTiter-Glo luminescent cell viability assay; type: functional; conditions: Homo sapiens, SW-620
[10] = system: MDA-MB-231; assay: Synergistic antiproliferative activity against human MDA-MB-231 cells assessed as reduction in cell proliferation by measuring combination index in presence of Elesclomol by MTT assay; type: functional
[11] = system: SW-620; assay: Inhibition of colony formation of human SW-620 cells incubated for 11 days (Every 3 days medium is changed by fresh medium and compounds were added freshly) by crystal violet staining based assay; type: functional, cell-based
[12] = system: Mus musculus; assay: Inhibition of CDK8 in athymic nude mouse xenografted with human SW-620 cells assessed as reduction in STAT1 S727 phosphorylation 5 mg/kg, po administered as single dose after 4 hrs by Western blot analysis; type: functional, organism-based
[13] = system: BXPC-3; assay: Synergistic antiproliferative activity against human BXPC-3 cells assessed as reduction in cell proliferation by measuring combination index in presence of Elesclomol by MTT assay; type: functional
[14] = system: SW-620; assay: Synergistic antiproliferative activity against human SW-620 cells assessed as reduction in cell proliferation by measuring combination index in presence of ABT-751 by MTT assay; type: functional
[15] = system: A549; assay: Antiproliferative activity against human A549 cells assessed as reduction in cell proliferation by CellTiter-Glo luminescent cell viability assay; type: functional
[16] = system: SK-MEL19; assay: Antiproliferative activity against human SK-MEL19 cells assessed as reduction in cell proliferation by CellTiter-Glo luminescent cell viability assay; type: functional
[17] = system: MV4-11; assay: Antiproliferative activity against human MV4-11 cells assessed as reduction in cell proliferation by CellTiter-Glo luminescent cell viability assay; type: functional; conditions: Homo sapiens, MV4-11
[18] = system: SW-620; assay: Synergistic antiproliferative activity against human SW-620 cells assessed as reduction in cell proliferation by measuring combination index in presence of Elesclomol by MTT assay; type: functional
[19] = system: DU-145; assay: Antiproliferative activity against human DU-145 cells assessed as reduction in cell proliferation by CellTiter-Glo luminescent cell viability assay; type: functional
[20] = system: Mus musculus; assay: Inhibition of CDK8 in athymic nude mouse xenografted with human SW-620 cells assessed as reduction in STAT1 S727 phosphorylation 5 mg/kg, po administered as single dose after 1 hr by Western blot analysis; type: functional, organism-based
[21] = system: SK-MEL19; assay: Synergistic antiproliferative activity against human SK-MEL19 cells assessed as reduction in cell proliferation by measuring combination index in presence of Crizotinib by MTT assay; type: functional
[22] = system: HCT-116; assay: Synergistic antiproliferative activity against human HCT-116 cells assessed as reduction in cell proliferation by measuring combination index in presence of taxol by MTT assay; type: functional
[23] = system: MDA-MB-231; assay: Antiproliferative activity against human MDA-MB-231 cells assessed as reduction in cell proliferation by CellTiter-Glo luminescent cell viability assay; type: functional; conditions: Homo sapiens, MDA-MB-231
[24] = system: SW-620; assay: Synergistic antiproliferative activity against human SW-620 cells assessed as reduction in cell proliferation by measuring combination index in presence of taxol by MTT assay; type: functional
[25] = system: HCT-116; assay: Antiproliferative activity against human HCT-116 cells assessed as reduction in cell proliferation by CellTiter-Glo luminescent cell viability assay; type: functional
[26] = system: SW-620; assay: Synergistic antiproliferative activity against human SW-620 cells assessed as reduction in cell proliferation by measuring combination index in presence of Ali-sertib by MTT assay; type: functional
[27] = system: SK-MEL19; assay: Synergistic antiproliferative activity against human SK-MEL19 cells assessed as reduction in cell proliferation by measuring combination index in presence of Elesclomol by MTT assay; type: functional
[28] = system: DU-145; assay: Synergistic antiproliferative activity against human DU-145 cells assessed as reduction in cell proliferation by measuring combination index in presence of Ali-sertib by MTT assay; type: functional
[29] = system: BXPC-3; assay: Synergistic antiproliferative activity against human BXPC-3 cells assessed as reduction in cell proliferation by measuring combination index in presence of crizotinib by MTT assay; type: functional
[30] = system: BXPC-3; assay: Antiproliferative activity against human BXPC-3 cells assessed as reduction in cell proliferation by CellTiter-Glo luminescent cell viability assay; type: functional
[31] = system: DU-145; assay: Synergistic antiproliferative activity against human DU-145 cells assessed as reduction in cell proliferation by measuring combination index in presence of crizotinib by MTT assay; type: functional
[32] = system: HCT-116; assay: Synergistic antiproliferative activity against human HCT-116 cells assessed as reduction in cell proliferation by measuring combination index in presence of crizotinib by MTT assay; type: functional
[33] = system: A549; assay: Synergistic antiproliferative activity against human A549 cells assessed as reduction in cell proliferation by measuring combination index in presence of Elesclomol by MTT assay; type: functional
[34] = system: SW-620; assay: Induction of cell cycle arrest in human SW-620 cells assessed as accumulation at G2M phase at 0.5 to 5 uM incubated for 24 hrs by propidium iodide staining based assay; type: functional; conditions: dose 0.5-5 µM
[35] = system: SW-620; assay: Synergistic antiproliferative activity against human SW-620 cells assessed as reduction in cell proliferation by measuring combination index in presence of oxaliplatin by MTT assay; type: functional

Cyclin-dependent kinase 8, sequence (P49336 whole entry): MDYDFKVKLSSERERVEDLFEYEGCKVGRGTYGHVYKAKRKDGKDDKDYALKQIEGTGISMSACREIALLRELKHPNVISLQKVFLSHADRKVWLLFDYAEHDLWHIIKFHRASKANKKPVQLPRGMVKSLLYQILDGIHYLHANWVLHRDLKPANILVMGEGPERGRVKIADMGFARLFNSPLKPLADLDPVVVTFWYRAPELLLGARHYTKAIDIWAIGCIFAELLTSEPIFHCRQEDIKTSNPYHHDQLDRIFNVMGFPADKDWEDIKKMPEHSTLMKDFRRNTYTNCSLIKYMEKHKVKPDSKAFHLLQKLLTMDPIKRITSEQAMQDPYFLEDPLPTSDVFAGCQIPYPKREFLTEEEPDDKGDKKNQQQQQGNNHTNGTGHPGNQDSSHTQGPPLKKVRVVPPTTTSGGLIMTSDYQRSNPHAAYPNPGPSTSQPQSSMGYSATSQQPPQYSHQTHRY

Q: For `CCn1c(C(N)=O)cc2c1-c1ccncc1OC2(C)C`, which Activity [1] is on record?
A: Dose-dependent effect

Q: And the CI [2]?
A: 0.65

Q: And the GI50 [3]?
A: 0.349 µM

Q: And the IC50 [4]?
A: 0.0016 µM

Q: What about the IC50 [5] of the same molecule?
A: 0.0015 µM

Q: What about the CI [6] of the same molecule?
A: 0.64

Q: What about the INH [7] of the same molecule?
A: 1.5 10^-8mol/L

Q: And the CI [8]?
A: 0.21

Q: And the GI50 [9]?
A: 3.39 µM

Q: What about the CI [10] of the same molecule?
A: 0.59

Q: What about the EC50 [11] of the same molecule?
A: 0.051 µM

Q: What about the inhibition [12] of the same molecule?
A: Active

Q: And the CI [13]?
A: 0.25

Q: And the CI [14]?
A: 0.18

Q: What about the GI50 [15] of the same molecule?
A: 5 µM

Q: And the GI50 [16]?
A: 1.25 µM

Q: And the GI50 [17]?
A: 0.115 µM

Q: And the CI [18]?
A: 0.05

Q: What about the GI50 [19] of the same molecule?
A: 5 µM

Q: And the inhibition [20]?
A: Active

Q: What about the CI [21] of the same molecule?
A: 0.55

Q: What about the CI [22] of the same molecule?
A: 0.63

Q: What about the GI50 [23] of the same molecule?
A: 3.5 µM

Q: What about the CI [24] of the same molecule?
A: 0.28

Q: And the GI50 [25]?
A: 5 µM

Q: What about the CI [26] of the same molecule?
A: 0.52

Q: And the CI [27]?
A: 0.49

Q: What about the CI [28] of the same molecule?
A: 0.65

Q: What about the CI [29] of the same molecule?
A: 0.72

Q: What about the GI50 [30] of the same molecule?
A: 5 µM

Q: What about the CI [31] of the same molecule?
A: 0.44

Q: What about the CI [32] of the same molecule?
A: 0.58

Q: And the CI [33]?
A: 0.63

Q: What about the Activity [34] of the same molecule?
A: Dose-dependent effect

Q: What about the CI [35] of the same molecule?
A: 0.53
